The record followed here is ChEMBL document CHEMBL1255397, “Attenuation of cerebrospinal fluid inflammation by the nonbacteriolytic antibiotic daptomycin versus that by ceftriaxone in experimental pneumococcal meningitis” (Antimicrob Agents Chemother, 2010).

Data set [1] relates to Rattus norvegicus. Description: Toxicity in Streptococcus pneumoniae serotype 3 clinical isolate infected in Wistar rat assessed as increase in CSF IL-18 concentration at 50 mg/kg, sc administered 18 hrs post infection measured after 2 to 6 hrs by microsphere-based multiplex assay. The class given is organism-based. Conditions: in vivo. More on the design: dose 50 mg/kg, route subcutaneous.

Data set [2] has as its system Rattus norvegicus. Description: Toxicity in Streptococcus pneumoniae serotype 3 clinical isolate infected in Wistar rat assessed as increase in CSF MIP-1alpha concentration at 100 mg/kg, sc administered 18 hrs post infection measured after 2 to 6 hrs by microsphere-based multiplex assay. The class given is organism-based. Further details: dose 100 mg/kg, route subcutaneous. Conditions: in vivo.

The test system of data set [3] is Rattus norvegicus. Description: Toxicity in Streptococcus pneumoniae serotype 3 clinical isolate infected in Wistar rat assessed as increase in CSF MCP-1 concentration at 100 mg/kg, sc administered 18 hrs post infection measured after 2 to 6 hrs by microsphere-based multiplex assay. Format: organism-based. More on the design: dose 100 mg/kg, route subcutaneous. To be noted: in vivo.

Data set [4] deals with Rattus norvegicus. As to the kind of experiment: Toxicity in Streptococcus pneumoniae serotype 3 clinical isolate infected in Wistar rat assessed as decrease in CSF IL1-beta concentration at 100 mg/kg, sc administered 18 hrs post infection measured after 2 to 6 hrs by microsphere-based multiplex assay. Format: organism-based. Further details: dose 100 mg/kg, route subcutaneous. To be noted: in vivo.

Data set [5] deals with Rattus norvegicus. Description: Toxicity in Streptococcus pneumoniae serotype 3 clinical isolate infected in Wistar rat assessed as decrease in CSF IL-10 concentration at 100 mg/kg, sc administered 18 hrs post infection measured after 2 to 6 hrs by microsphere-based multiplex assay. More on the design: dose 100 mg/kg, route subcutaneous. To be noted: in vivo. The class given is organism-based.

The subject of data set [6] is Rattus norvegicus. As to the kind of experiment: Decrease in severity of cortical damage in Streptococcus pneumoniae serotype 3 clinical isolate infected in Wistar rat at 100 mg/kg, sc administered 18 hrs post infection measured after 2 to 6 hrs. Format: functional. To be noted: route subcutaneous.
For data set [7], the system named is Rattus norvegicus. As to the kind of experiment: Toxicity in Streptococcus pneumoniae serotype 3 clinical isolate infected in Wistar rat assessed as decrease in CSF MIP-1alpha concentration at 50 mg/kg, sc administered 18 hrs post infection measured after 2 to 6 hrs by microsphere-based multiplex assay. Format: organism-based. More on the design: dose 50 mg/kg, route subcutaneous. Conditions: in vivo.

In data set [8] the test system is Rattus norvegicus. Description: Toxicity in Streptococcus pneumoniae serotype 3 clinical isolate infected in Wistar rat assessed as decrease in CSF MCP-1 concentration at 50 mg/kg, sc administered 18 hrs post infection measured after 2 to 6 hrs by microsphere-based multiplex assay. The class given is organism-based. Further details: dose 50 mg/kg, route subcutaneous. To be noted: in vivo.

For data set [9], the system named is Rattus norvegicus. Description: Toxicity in against Streptococcus pneumoniae serotype 3 clinical isolate infected in Wistar rat assessed as decrease in CSF IL-18 concentration at 50 mg/kg, sc administered 18 hrs post infection measured after 2 to 6 hrs by microsphere-based multiplex assay. To be noted: in vivo. Format: organism-based. Further details: dose 50 mg/kg, route subcutaneous.

Data set [10] has as its system Rattus norvegicus. As to the kind of experiment: Toxicity in Streptococcus pneumoniae serotype 3 clinical isolate infected in Wistar rat assessed as decrease in CSF IL1-beta concentration at 50 mg/kg, sc administered 18 hrs post infection measured after 2 to 6 hrs by microsphere-based multiplex assay. The class given is organism-based. Conditions: in vivo. Further details: dose 50 mg/kg, route subcutaneous.

The subject of data set [11] is Rattus norvegicus. Description: Toxicity in Streptococcus pneumoniae serotype 3 clinical isolate infected in Wistar rat assessed as decrease in CSF IL-10 concentration at 50 mg/kg, sc administered 18 hrs post infection measured after 2 to 6 hrs by microsphere-based multiplex assay. Format: organism-based. Further details: dose 50 mg/kg, route subcutaneous. Conditions: in vivo.

The test system of data set [12] is Rattus norvegicus. Description: Toxicity in against Streptococcus pneumoniae serotype 3 clinical isolate infected in Wistar rat assessed as increase in CSF IL-18 concentration at 100 mg/kg, sc administered 18 hrs post infection measured after 2 to 6 hrs by microsphere-based multiplex assay. Format: organism-based. Further details: dose 100 mg/kg, route subcutaneous. Conditions: in vivo.

In another data set the test system is Streptococcus pneumoniae. Description: Antimicrobial activity against Streptococcus pneumoniae serotype 3 clinical isolate infected in Wistar rat assessed as cerebrospinal fluid bacterial titer at 50 mg/kg, sc administered 18 hrs post infection measured after 4 hrs. Format: functional. To be noted: route subcutaneous.
Data set [13] has as its system Rattus norvegicus. Description: Decrease in severity of cortical damage in Streptococcus pneumoniae serotype 3 clinical isolate infected in Wistar rat at 50 mg/kg, sc administered 18 hrs post infection measured after 2 to 6 hrs. The class given is functional. Conditions: route subcutaneous.
In data set [14] the test system is Rattus norvegicus. As to the kind of experiment: Toxicity in Streptococcus pneumoniae serotype 3 clinical isolate infected in Wistar rat assessed as decrease in CSF TNF-alpha concentration at 50 mg/kg, sc administered 18 hrs post infection measured after 2 to 6 hrs by microsphere-based multiplex assay. The class given is organism-based. More on the design: dose 50 mg/kg, route subcutaneous. Conditions: in vivo.

Data set [15] relates to Rattus norvegicus. As to the kind of experiment: Toxicity in Streptococcus pneumoniae serotype 3 clinical isolate infected in Wistar rat assessed as decrease in CSF CXCL1 concentration at 50 mg/kg, sc administered 18 hrs post infection measured after 2 to 6 hrs by microsphere-based multiplex assay. Format: organism-based. More on the design: dose 50 mg/kg, route subcutaneous. Conditions: in vivo.

For data set [16], the system named is Rattus norvegicus. As to the kind of experiment: Toxicity in Streptococcus pneumoniae serotype 3 clinical isolate infected in Wistar rat assessed as decrease in CSF IL-6 concentration at 50 mg/kg, sc administered 18 hrs post infection measured after 2 to 6 hrs by microsphere-based multiplex assay. Format: organism-based. More on the design: dose 50 mg/kg, route subcutaneous. To be noted: in vivo.

As to `CO/N=C(\C(=O)N[C@@H]1C(=O)N2C(C(=O)O)=C(CSc3nc(=O)c(=O)[nH]n3C)CS[C@H]12)c1csc(N)n1` [CEFTRIAXONE], the Activity result with Rattus norvegicus [1] was “Toxic”; with Rattus norvegicus [2] it was “Toxic”; in the data set with Rattus norvegicus [3], “Toxic”; in the data set on Rattus norvegicus [4] it was “Toxic”; with Rattus norvegicus [5], “Toxic”; in the data set on Rattus norvegicus [7], “Non-toxic”. In addition, the Activity result in the data set with Rattus norvegicus [8], with Rattus norvegicus [9], with Rattus norvegicus [10] and in the data set with Rattus norvegicus [11] was “Non-toxic” each time. For the same compound, in the data set with Rattus norvegicus [6], testing at 100 mg/kg gave an inhibition in vivo of 4.7%.

Regarding `CCCCCCCCCC(=O)N[C@@H](Cc1c[nH]c2ccccc12)C(=O)N[C@H](CC(N)=O)C(=O)N[C@@H](CC(=O)O)C(=O)N[C@@H]1C(=O)NCC(=O)N[C@@H](CCCN)C(=O)N[C@@H](CC(=O)O)C(=O)N[C@H](C)C(=O)N[C@@H](CC(=O)O)C(=O)NCC(=O)N[C@H](CO)C(=O)N[C@@H]([C@H](C)CC(=O)O)C(=O)N[C@@H](CC(=O)c2ccccc2N)C(=O)O[C@@H]1C`, the Activity result in the data set on Rattus norvegicus [12] is reported as “Toxic”; with Rattus norvegicus [14], “Non-toxic”; in the data set on Rattus norvegicus [15], “Non-toxic”; with Rattus norvegicus [16], “Non-toxic”. Besides, the log10CFU/ml in the data set with Streptococcus pneumoniae was < 1000 CFU/ml. The compound also gave an inhibition in vivo at 50 mg/kg with Rattus norvegicus [13] of 0.13%.
